According to publication PMC6424956, “A MALDI-TOF-based Method for Studying the Transport of BBB Shuttles—Enhancing Sensitivity and Versatility of Cell-Based In Vitro Transport Models” (Scientific Reports, 2019):
Read-outs that look alike come from different tables or passages of the source. Numbered stars: 1 amine (or outer) side, 2 acyl side, 3 side chain; on linkers, the order of the positions; unused ones are H or OH. Square brackets hold non-standard residues; d marks the D form. Peptide text beside a SMILES is read from it. X1 = O=C([C@H]1[C@@H](c2ccccc2)CCN1[*:1])[*:2]; X2 = O=C([C@@H]1[C@H](c2ccccc2)CCN1[*:1])[*:2]; dAla(4-thiazolyl) = N[C@H](Cc1cscn1)C(=O)O; Tic(7-OH) = O=C(O)[C@@H]1Cc2ccc(O)cc2CN1; Phe(4-NH2) = Nc1ccc(C[C@H](N)C(=O)O)cc1; Phe(4-F) = N[C@@H](Cc1ccc(F)cc1)C(=O)O; hCha = N[C@@H](CCC1CCCCC1)C(=O)O

How the values were obtained:
[1] = Parallel artificial membrane permeability assay (PAMPA); type: in vitro ADME; details: pig, porcine brain polar lipid extract
Description: Passive diffusion was ruled out as the mechanism responsible for transport when the peptides (1 L, 6D, 7 − D and 8D) were assayed by PAMPA, an in vitro physico-chemical model where the transport by passive diffusion of compounds is evaluated through a membrane containing the lipid composition of interest (in our case, a porcine brain polar lipid extract (BPLE) to mimic the BBB lipid barrier). […] Note that when these values fall below 2.0 × 10^−6 cm/s compounds are considered to be poorly transported by passive diffusion.
The PAMPA assay was used to exclude passive diffusion capacity across the BBB. The standard parameter that quantifies transport independently of time and concentrations is effective permeability, Pe=−218.3/tLog(1−2CA(t)/CD(t0))×10^−6cm/s; where t is the running time (4 h), CA (t) is the concentration of the compound in the acceptor well at time t, and CD (t0) is the compound concentration in the donor well before running the PAMPA assay (t0 = 0 h). […] The protocol followed was the same as that previously used by Arranz-Gibert et al.[1]. Permeability is considered excellent with values >4.0 × 10^−6) cm/s, uncertain between 2.0 × 10^−6 and 4.0 × 10^−6 cm/s, and poor with values below 2.0 × 10^−6) cm/s[41].

[2] = In vitro bovine BBB cell-based model transport assay; details: bovine, 200 μM peptide in Ringer-HEPES, 2 h, 37 °C, mean ± SD, n = 3
Description: (§1) Peptides were evaluated through an in vitro bovine BBB cell-based model (Fig. 2a). Transport (T) and permeability (Papp) for all peptides were quantified by RP-HPLC-PDA and by MALDI-TOF MS (Fig. 2). The former method determined transport by applying the ratio between the peak areas integrated in the chromatograms from the acceptor and donor wells, further corrected by the volumes injected and the volumes contained in each well (see Eq. 1). The latter entails the spiking of the heavy version of the peptide as internal standard into an aliquot of the light peptide (Fig. 2b). The MS intensity for light/heavy ratios for acceptor and donor wells is representative of the relative amount of peptide in each well when corrected by their volume (detailed in Eq. 2).1 T=QAI(t)/QDI(t0)×VDI/VAI×VAW/VDW×100(%) where QAI(t) and QDI(t0) account for the integrated area in the HPLC chromatograms of acceptor (at time t = 2 h) and donor (at time t0 = 0) wells, respectively; VDI and VAI are the injected volumes from donor and acceptor wells, respectively; and VAW and VDW are the volumes in each acceptor and donor well, respectively.2 T=QALight(t)/Q^Heavy/QDLight(t0)/(R×Q^Heavy)×VAW/VDW×100(%) QALight(t)/Q^Heavy accounts for the relative amount of the light peptide in the acceptor well (at time t) compared with a prepared dilution of the heavy isomer (at 2 μM). QDLight(t0)/(R×Q^Heavy) determines the relative amount of light peptide in the donor well (at time t = 0) compared with a prepared dilution of the heavy isomer (at 200 μM; i.e. in our case R = 100).
(§2) In general, transport (see Eq. 3) can be described by the total amount of peptide in the acceptor well at time t, QA(t) , divided by the initial amount in the donor well, QD(t0) , while apparent permeability (Papp), widely used in the literature, normalizes transport by the transwell area, volume in donor well and time (see Eq. 4). […] In these cases, an approximate value was determined.
(§3) This assay was an adapted model[5] of the method previously published by Gaillard and de Boer[49]. Before performing the assay, TEER was measured in all transwells (TEER > 100 Ω·cm^2). […] The apical compartment was filled with 200 μL of the solution containing the peptide, and 800 µL of Ringer-HEPES was poured into the basal well. Three replicates of each peptide were assayed. The plate was left for 2 h in the incubator at 37 °C. Finally, the samples were collected and analyzed or frozen until analysis. LY fluorescence was measured in a 96-well plate with a Fluoroskan Ascent Microplate Fluorometer (Thermo Fisher Scientific). Two parameters were determined, namely transport (T (%)) and apparent permeability (Papp(cm/s)). RP-HPLC-PDA (220 nm) and MALDI-TOF MS were used to determine the amounts of peptide in each sample.
(§4) Transport was calculated using Eq. 2. […] Peak-picking and determination of peak area ratios was performed using Data Explorer version 4.5 (Applied Biosystems).

[3] = test system: in vitro bovine BBB cell-based model; assay: as above; details: for Transport (%) MALDI-TOF MS / Transport (%) RP-HPLC-PDA: 200 μM peptide in Ringer-HEPES, 2 h, 37 °C, mean ± SD, n = 3; for Transport (%) MALDI-TOF MS: quantified by MALDI-TOF MS with heavy internal standard; for Transport (%) RP-HPLC-PDA: quantified by RP-HPLC-PDA (220 nm), some values approximate (below LOQ); for Increase in transport compared to the parent peptide (1 L): bovine BBB model, MALDI-TOF MS quantification, transport normalized by parent peptide 1 L
Description: as §1, §2, §3, §4

[4] = Peptide stability in human serum; type: in vitro ADME; details: for Protease resistance (in human serum): result in words
Description: Peptides were dissolved in 1 mL of HBSS buffer/human serum (from human male AB plasma; Sigma-Aldrich) 10:90 (v/v) at a final concentration of 200 µM and incubated at 37 °C for 24 h. Aliquots of 50 µL were extracted at a range of incubation times and treated with 200 µL of cold CH3OH (4 °C) to precipitate serum proteins. After 30 min, samples were centrifuged at 13,000 g and 4 °C for 30 min. Supernatants were analyzed by RP-HPLC-PDA and MALDI-TOF MS, using similar procedures as for the quantification of the in vitro cell-based BBB model.

[5] = test system: in vitro human model of the BBB (brain-like endothelial cells from human cord blood-derived hematopoietic stem cells co-cultured with bovine pericytes); assay: In vitro human BBB cell-based model transport assay
Description: The aforementioned peptides were assayed as in the other BBB model using either Ringer-HEPES buffer (the one commonly used in these assays) or supplemented ECM medium. The use of medium in this assay allows (1) the extension of the incubation time and (2) the use of more similar conditions to those found physiologically.
Endothelial cells and pericytes were defrosted in gelatin-coated Petri dishes (Corning). Pericytes and endothelial cells were cultured in DMEM pH 6.8 or in supplemented endothelial cell growth medium (Sciencells), respectively. After 48 h, pericytes (50,000 cells/well) and endothelial cells (80,000 cells/well) were seeded in gelatin-coated 12-well plates or in Matrigel-coated 12-well Transwell inserts (Corning), respectively. Medium was changed every 2–3 days and assays were performed 7–8 days after seeding. […] LY fluorescence was measured in a 96-well plate with a Fluoroskan Ascent Microplate Fluorometer (Thermo Fisher Scientific). Compounds were dissolved in Ringer-HEPES at a concentration of 200 µM. Then, 500 µL of the compound and 1,500 µL of Ringer-HEPES alone were introduced in the apical or in the basolateral compartments, respectively. The plates were set on at 37 °C for 2 h. The solutions from both compartments were then recovered and quantified by HPLC and identified by MALDI-TOF.

[6] = 4 h, n = 3, values are Pe · 10^6, read-out: Pe · 10^6 (effective permeability)
[7] = read-out: Permeability values (PAMPA), bound in the text
[8] = Papp MALDI-TOF MS, quantified by MALDI-TOF MS with heavy internal standard
[9] = Papp RP-HPLC-PDA, quantified by RP-HPLC-PDA (220 nm)

Row | Compound | Papp at 4 h [1, 6] | Papp at 4 h [1, 7] | Papp at 2 h, 200 μM [2, 8] | Papp at 2 h, 200 μM [2, 9] | Transport (%) MALDI-TOF MS [3] | Transport (%) RP-HPLC-PDA [3] | Protease resistance (in human serum) [4] | Transport relative to the parent peptide 1 L (HAI), buffer ([5]; human BBB model, Ringer-HEPES buffer) | Transport relative to the parent peptide 1 L (HAI), medium ([5]; human BBB model, supplemented ECM medium) | Increase in transport compared to the parent peptide (1 L) [3] | Papp of Lucifer Yellow (internal control) ([5]; 50 µM Lucifer Yellow as internal control) | Papp of Lucifer yellow (control) ([3]; 20 μM Lucifer yellow lithium salt as control in Ringer-HEPES) | half-life at 200 µM ([4]; male, HBSS buffer/human serum 10:90 (v/v), 200 µM, 37 °C, 24 h, non-linear regression, read-out: t1/2 in human serum (converted))
1 | CC[C@@H](C)[C@@H](NC(=O)[C@@H](Cc1ccc(O)cc1)NC(=O)[C@H]1CCCN1C(=O)[C@@H](CCCNC(=N)N)NC(=O)[C@@H](Cc1c[nH]cn1)NC(C)=O)C(=O)N[C@H](C)C(=O)N[C@H](Cc1c[nH]cn1)C(N)=O [Peptide 6D, Ac-hrpyiah-NH2] | 0.34 ×10⁻⁶ cm/s | < 0.4 ×10⁻⁶ cm/s | 2.6 ± 0.7 ×10⁻⁶ cm/s | 4.5 ± 1.5 ×10⁻⁶ cm/s | 3.1 ± 0.9% | 5.3 ± 1.8% | – | – | – | – | – | – | –
2 | CC[C@@H](C)[C@@H](NC(=O)[C@@H](Cc1ccc(O)cc1)NC(=O)[C@H]1[C@@H](c2ccccc2)CCN1C(=O)[C@@H](CCCNC(=N)N)NC(=O)[C@@H](Cc1c[nH]cn1)NC(C)=O)C(=O)N[C@H](C)C(=O)N[C@H](Cc1c[nH]cn1)C(N)=O [Peptide 7-D, Ac-hrxyiah-NH2] (Ac-[dH][dR][X1][dY][dI][dA][dH]-NH2) | 0.33 ×10⁻⁶ cm/s | < 0.4 ×10⁻⁶ cm/s | 6 ± 2 ×10⁻⁶ cm/s | 4.8 ± 1.5 ×10⁻⁶ cm/s | 7 ± 3% | 5.7 ± 1.8% | high resistance to protease degradation | around 1.5 fold | eight- | two-fold | – | – | –
3 | CC[C@H](C)[C@H](NC(=O)[C@H](C)NC(=O)[C@H](Cc1c[nH]cn1)NC(C)=O)C(=O)N[C@@H](Cc1ccc(F)cc1)C(=O)N1CCC[C@H]1C(=O)N[C@@H](CCCNC(=N)N)C(=O)N[C@@H](Cc1c[nH]cn1)C(N)=O [Peptide 5L, Ac-HAIxPRH-NH2] (Ac-HAI[Phe(4-F)]PRH-NH2) | – | – | 2.6 ± 1.3 ×10⁻⁶ cm/s | 2.9 ± 1.3 ×10⁻⁶ cm/s | 3.1 ± 1.6% | 3.4 ± 1.6% | – | – | – | – | – | – | –
4 | CC[C@@H](C)[C@@H](NC(=O)[C@@H](Cc1ccc(O)cc1)NC(=O)[C@@H]1[C@H](c2ccccc2)CCN1C(=O)[C@@H](CCCNC(=N)N)NC(=O)[C@@H](Cc1c[nH]cn1)NC(C)=O)C(=O)N[C@H](C)C(=O)N[C@H](Cc1c[nH]cn1)C(N)=O [7+D, Ac-hrxyiah-NH2] (Ac-[dH][dR][X2][dY][dI][dA][dH]-NH2) | – | – | 5.7 ± 1.9 ×10⁻⁶ cm/s | 5.7 ± 1 ×10⁻⁶ cm/s | 7 ± 2% | 6.8 ± 1.2% | – | – | – | two-fold | – | – | –
5 | Lucifer yellow (LY) lithium salt [reference compound] | – | – | – | – | – | – | – | – | – | – | < 15 ·10^−6 cm/s | < 17 ·10^−6 cm/s | –
6 | CC[C@H](C)[C@H](NC(=O)[C@H](C)NC(=O)[C@H](Cc1c[nH]cn1)NC(C)=O)C(=O)N[C@@H](Cc1ccc(O)cc1)C(=O)N1CCC[C@H]1C(=O)N[C@@H](CCCNC(=N)N)C(=O)N[C@@H](Cc1c[nH]cn1)C(N)=O [Peptide 1L, Ac-HAIYPRH-NH2] | 0.18 ×10⁻⁶ cm/s | < 0.4 ×10⁻⁶ cm/s | 3.2 ± 1.2 ×10⁻⁶ cm/s | 2.5 ± 1.1 ×10⁻⁶ cm/s | 3.8 ± 1.4% | 2.9 ± 1.4% | – | – | – | – | – | – | 3.3 h
7 | CC(=O)N[C@@H](Cc1c[nH]cn1)C(=O)N[C@@H](C)C(=O)N[C@@H](CCC1CCCCC1)C(=O)N[C@@H](Cc1ccc(O)cc1)C(=O)N1CCC[C@H]1C(=O)N[C@@H](CCCNC(=N)N)C(=O)N[C@@H](Cc1c[nH]cn1)C(N)=O [Peptide 2L, Ac-HAxYPRH-NH2] (Ac-HA[hCha]YPRH-NH2) | – | – | 2.8 ± 0.6 ×10⁻⁶ cm/s | 3.3 ± 0.7 ×10⁻⁶ cm/s | 3.4 ± 0.7% | 3.9 ± 0.9% | – | – | – | – | – | – | –
8 | CC[C@@H](C)[C@@H](NC(=O)[C@@H](Cc1ccc(O)cc1)NC(=O)[C@H]1CCCN1C(=O)[C@@H](CCCNC(=N)N)NC(=O)[C@@H](Cc1cscn1)NC(C)=O)C(=O)N[C@H](C)C(=O)N[C@H](Cc1c[nH]cn1)C(N)=O [Peptide 9D, Ac-xrpyiah-NH2] (Ac-[dAla(4-thiazolyl)][dR][dP][dY][dI][dA][dH]-NH2) | – | – | 2.4 ± 1 ×10⁻⁶ cm/s | 3.7 ± 0.4 ×10⁻⁶ cm/s | 2.9 ± 1.2% | 4.4 ± 0.5% | – | – | – | – | – | – | –
9 | CC[C@@H](C)[C@@H](NC(=O)[C@@H](Cc1ccc(O)cc1)NC(=O)[C@H]1CCCCN1C(=O)[C@@H](CCCNC(=N)N)NC(=O)[C@@H](Cc1c[nH]cn1)NC(C)=O)C(=O)N[C@H](C)C(=O)N[C@H](Cc1c[nH]cn1)C(N)=O [Peptide 8D, Ac-hrxyiah-NH2] | 0.34 ×10⁻⁶ cm/s | < 0.4 ×10⁻⁶ cm/s | 6.3 ± 0.8 ×10⁻⁶ cm/s | 6.1 ± 0.8 ×10⁻⁶ cm/s | 7.5 ± 1.0% | 7.2 ± 0.9% | high resistance to protease degradation | – | – | two-fold | – | – | –
10 | CC[C@H](C)[C@H](NC(=O)[C@H](C)NC(=O)[C@H](Cc1c[nH]cn1)NC(C)=O)C(=O)N[C@@H](Cc1ccc(N)cc1)C(=O)N1CCC[C@H]1C(=O)N[C@@H](CCCNC(=N)N)C(=O)N[C@@H](Cc1c[nH]cn1)C(N)=O [Peptide 4L, Ac-HAIxPRH-NH2] (Ac-HAI[Phe(4-NH2)]PRH-NH2) | – | – | 1.8 ± 0.4 ×10⁻⁶ cm/s | 1.6 ± 0.8 ×10⁻⁶ cm/s | 2.1 ± 0.5% | 2.0 ± 0.9% | – | – | – | – | – | – | –
11 | CC[C@H](C)[C@H](NC(=O)[C@H](C)NC(=O)[C@H](Cc1c[nH]cn1)NC(C)=O)C(=O)N1Cc2cc(O)ccc2C[C@H]1C(=O)N1CCC[C@H]1C(=O)N[C@@H](CCCNC(=N)N)C(=O)N[C@@H](Cc1c[nH]cn1)C(N)=O [Peptide 3L, Ac-HAIxPRH-NH2] (Ac-HAI[Tic(7-OH)]PRH-NH2) | – | – | 2.1 ± 1 ×10⁻⁶ cm/s | 1.7 ± 0.6 ×10⁻⁶ cm/s | 2.5 ± 1.2% | 2.0 ± 0.8% | – | – | – | – | – | – | –
